Assays:
Human IL-17AF = target: T1, Human IL-17AF (Homo sapiens, UniProt Q16552+Q96PD4); assay: IL-17AF ELISA (competitive ELISA, IL-17AF/IL-17Ra receptor-ligand binding); settings: human IL-17AF coated plate, human IL-17Ra, read-out: IC50, inhibitory activity of compounds on human IL-17AF
T1 construct: purchased Sino Biological Inc. CT047-H08H
T1 sequence (Q16552 24-155): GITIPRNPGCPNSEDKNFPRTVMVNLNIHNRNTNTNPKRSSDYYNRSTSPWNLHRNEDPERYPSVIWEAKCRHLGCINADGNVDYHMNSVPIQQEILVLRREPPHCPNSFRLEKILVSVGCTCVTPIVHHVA
T1 sequence (Q96PD4 31-163): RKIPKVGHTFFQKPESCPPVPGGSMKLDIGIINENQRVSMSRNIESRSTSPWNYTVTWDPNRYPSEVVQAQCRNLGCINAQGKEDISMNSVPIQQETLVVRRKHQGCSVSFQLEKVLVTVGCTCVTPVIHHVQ
Outline: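 Plates coated with 0.625 μg/ml human IL-17AF in PBS pH 7.4 (37 °C, 30 min) and milk-blocked. Compounds pre-incubated with coated IL-17AF for 10 min at 25 °C, then IL-17Ra added (as 100 nM solution) for 30 min. Bound receptor detected by anti-Fc HRP/TMB at 450 nm; IC50 from variable-slope normalized fit versus DMSO control and blank.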

Human IL-17A = target: T2, Human IL-17A (Homo sapiens, UniProt Q16552); assay: Inhibition of human IL-17A protein-induced GROα/CXCL1 production in HT-29 cells; type: cell-based; set-up: purchased R&D 317-ILB; host or cells: added exogenously to HT-29 cells; settings: 30 ng/mL human IL-17A protein, 48 h, GROα in supernatant by ELISA kit, read-out: Inhibitory IC50 of compounds on HT-29 cell GROα/CXCL1
T2 sequence (Q16552 20-155 limits assumed): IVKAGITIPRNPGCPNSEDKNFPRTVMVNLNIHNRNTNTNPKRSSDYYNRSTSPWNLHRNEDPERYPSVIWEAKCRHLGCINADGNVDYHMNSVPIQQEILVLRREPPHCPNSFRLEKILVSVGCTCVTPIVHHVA
Outline: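 Compound dilutions were preincubated 1 h at 37 °C with 30 ng/mL human IL-17A, then added to HT-29 cells (5×10^4/well) for 48 h at 37 °C. GROα in supernatant quantified by ELISA; IC50 for inhibition of its production. Positive control: IL-17A antibody at […].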

IC50 (Human IL-17AF)	IC50 (Human IL-17A)	Structure (SMILES)
100 to 500 nM	≤ 100 nM	Cc1[nH]nc2c1-c1cnc(NC(=O)[C@@H](NC(=O)/C(F)=C\C(C)C)C(C3CC3)C3CC3)cc1COCC2 [compound 238]
100 to 500 nM	≤ 100 nM	Cc1[nH]nc2c1-c1cnc(NC(=O)[C@@H](NC(=O)/C(F)=C\C3CC3)C(C3CC3)C3CC3)cc1COCC2 [compound 239]
100 to 500 nM	100 to 500 nM	CCc1nocc1C(=O)N[C@H](C(=O)Nc1cc2c(cn1)-c1c(n[nH]c1C)CCOC2)C(C1CC1)C1CC1 [compound 240]
100 to 500 nM	100 to 500 nM	Cc1[nH]nc2c1-c1cnc(NC(=O)[C@@H](NC(=O)c3conc3C3CC3)C(C3CC3)C3CC3)cc1COCC2 [compound 241]

Source: US20260258050A1, “IMMUNOMODULATOR” (HITGEN INC., priority 2023, published 2026)
